According to US7495030B2, “(5-(2-hydroxy-4-chlorobenzoyl) aminovaleric acid and salts thereof and compositions containing the same for delivering active agents” (Emisphere Technologies, Inc., priority 2000, dated 2009):

Experiments:
[1] = Insulin oral delivery in rats, serum human insulin by ELISA and serum glucose; format: in vivo, Male Sprague-Dawley rats; details: delivery agent compound dose 200 mg/kg, insulin dose 0.5 mg/kg, volume dose 1.0 ml/kg
Protocol: Oral dosing (PO) compositions of delivery agent compound and human zinc insulin (minimum 26 IU/mg available from Calbiochem—Novabiochem Corp, La Jolla, Calif.) were prepared in deionized water. […] The solution was vortexed, then heated (about 37° C.) and sonicated. The pH was adjusted to about 7 to 8.5 with NaOH or HCl.
About 1.25 mg insulin from an insulin stock solution (15 mg/ml made from 0.5409 g insulin and […] deionized water, adjusting with HCl and NaOH to pH 8.15 and to obtain a clear solution using […]) was added to the solution and mixed by inverting.
The typical dosing and sampling protocols were as follows. […] A dosing group of five animals was administered one of the dosing solutions. […] The syringe was filled with dosing solution by drawing the solution through the catheter, which was then wiped dry. The catheter was placed down the esophagus leaving 1 cm of tubing past the incisors. Solution was administered by pressing the syringe plunger.
Serum insulin levels were determined with an Insulin ELISA Test Kit (Kit # DSL-10-1600 from Diagnostic Systems Laboratories, Inc., Webster, Tex.), modifying the standard protocol in order to optimize the sensitivity and linear range of the standard curve for the volumes and concentrations of the samples used in the present protocol. […]

melting point: 140 to 141 °C
SMILES: O=C(O)CCCCNC(=O)c1ccc(Cl)cc1O [Compound 1, 5-(2-Hydroxy-4-Chlorobenzoyl)Aminovaleric Acid]
Mean peak serum insulin [1]: 36.25 ± 2.5 μU/ml
